Test results: patent US20090047682A1, “Method of detecting and predicting bronchodilatory response to beta agonist” (COUNCIL OF SCIENTIFIC AND INDUSTRIAL RESEARCH, priority 2004, published 2009)

Test system: β2AR
Conditions: Indian population; χ2=11.28, df=2, p=0.004

CC(C)(C)NCC(O)c1ccc(O)c(CO)c1 (stereo not shown) [salbutamol]
association of responder status to treatment with genotype at β2AR gene: strongly associated
